We go through 9 molecules from patent US7622476B2, “Methods of using 1-allyl ergot alkaloid derivatives to treat migraines” (priority 2002, dated 2009).

Assay [1] deals with 5-HT2B receptors. Description: Function test based on 5-HT2B receptor tissue (pig pulmonary artery, 5-HT-induced relaxation). The class given is cell-based. To be noted: for 5-HT2B pA2 value: antagonism of 5-HT-induced relaxation, antagonist conc. (nM). How it is done:
The test was an in vitro function test to characterize 5-HT2B receptors in a pig's pulmonary artery. The pig's pulmonary artery was prepared as follows: Small branches were dissected from the pulmonary artery and cautiously freed of organ tissue and connective tissue. Up to six rings of the artery (length 2-3 mm and width 1.5-2 mm) were hung in horizontal orientation between two L-shaped platinum hooks (150 μm in diameter) and fixed in an organ bath containing 10 ml of modified Krebs-Henseleit buffer composed as follows: 118 mM NaCl, 4.7 mM KCl, 2.5 mM CaCl2, 1.2 mM MgSO4, 1.2 mM KH2PO4, 25 mM NaHCO3, and 11 mM D-glucose. A continuous flow of a gas mixture of 95% O2 and 5% CO2 passed through the solution which was kept at a constant temperature of 35° C. The preparations were connected to an isometric power converter (Hugo Sachs Elektronik, March, Germany), and voltage changes were continuously recorded. The constant voltage in stationary condition was adjusted to 20 mN at the beginning of each experiment. During an initial stabilization period of 60 minutes, the bath medium was replaced every 20 minutes and the voltage was repeatedly adjusted to 20 mN. The artery preparations were stimulated at 45-minute intervals once with KCl (30 mM) and three times with prostaglandin-F2α (PGF2α, 3 μM) until the response by contraction was visible. The undamaged condition of the endothelium was evaluated functionally by measuring the extent of endothelium-dependent relaxation following application of bradykinin (10 nM). After the third PGF2α-induced contraction had stabilized, the relaxation response was examined for 5-HT by determining a cumulative concentration-response curve in the absence and presence of the antagonist. […].
The relaxation response to the test compound was examined using the same method as with 5-HT to test for agonistic activity. The concentration of the agonist was increased in increments at the time when the response signal had reached a plateau. The plateau was typically reached within 2 to 4 minutes. The relaxation effects were expressed as a percentage of the PGF2α-induced contraction. The antagonists were added 30 minutes before the recording of the agonist concentration response curves started. The effects of the antagonists were examined in ring segments that were adjacent to the reference segments.

The target of assay [2] is T1, 5-HT2A receptors (Rattus norvegicus, UniProt P14842).
T1 construct: characterizing 5-HT2A receptors in rat's caudal arteries; from tissue; host or cells: rat anterior caudal artery segments, endothelium stripped (male Wistar rats)
Briefly: Function test based on 5-HT2A receptor tissue (rat caudal artery, 5-HT concentration-response curves). It counts as cell-based. To be noted: for 5-HT2A pA2 value: rat caudal artery without endothelium, antagonism of 5-HT, antagonist conc. (nM). The text has this:
The example below describes an in-vitro function test for characterizing 5-HT2A receptors in rat's caudal arteries.
Male Wistar rats (250-300 g) were killed by suffocation. The anterior caudal artery was dissected fast and cleared of attached connective tissue. A stainless steel wire (0.3 mm in diameter) was introduced into the artery to strip off the endothelium. […] A continuous flow of a gas mixture of 95% O2 and 5% CO2 passed through the solution which was kept at a constant temperature of 37° C. […] The constant voltage was adjusted to 5 mN at the beginning of each experiment. During an equilibrium period of 120 minutes, the preparations were stimulated once after 60 minutes with 5-HT (1 μM).
Three cumulative concentration-response curves (CRC) were determined for each artery segment in these experiments for the study of partial agonists. The first CRC was obtained for 5-HT, the second that followed 60 minutes later for the partial agonist. Finally, the third CRC was obtained 10-15 minutes after the second CRC without washing with 5-HT and using the highest agonist concentration (0.3-3 μM). Additional experiments determined two CRCs at an interval of 60 minutes as described above. The first CRC was determined for 5-HT. The second CRC was determined to test the partial agonist in the presence of ketanserin. The preparations were incubated for 30 minutes with a ketanserin solution (3 nM).
The axial shift to the right of the curves determined in the presence of ketanserin was compared to the shift determined for the respective control preparation in the absence of ketanserin. In these experiments using ketanserin, two separate CRCs to 5-HT were obtained from each artery segment at a 90-minute interval. For the antagonists, the preparations were incubated 60 minutes prior to determining the second curve. Prazosin (0.1 μM) and cocaine (6 μM) were present in the solution during these experiments to block the α1-adrenoceptors and neuronal absorption of 5-HT.

Assay [3] has as its target T1, 5-HT2A receptors. As to conditions: reference compounds marked *; values from H. Pertz (1996) Planta Med. 62, pp. 387-392; cited from earlier work.

Where two headings read alike, the source gives them in different places. Marks after values point to notes of the source that are not given here.

T1 sequence (P14842 whole entry): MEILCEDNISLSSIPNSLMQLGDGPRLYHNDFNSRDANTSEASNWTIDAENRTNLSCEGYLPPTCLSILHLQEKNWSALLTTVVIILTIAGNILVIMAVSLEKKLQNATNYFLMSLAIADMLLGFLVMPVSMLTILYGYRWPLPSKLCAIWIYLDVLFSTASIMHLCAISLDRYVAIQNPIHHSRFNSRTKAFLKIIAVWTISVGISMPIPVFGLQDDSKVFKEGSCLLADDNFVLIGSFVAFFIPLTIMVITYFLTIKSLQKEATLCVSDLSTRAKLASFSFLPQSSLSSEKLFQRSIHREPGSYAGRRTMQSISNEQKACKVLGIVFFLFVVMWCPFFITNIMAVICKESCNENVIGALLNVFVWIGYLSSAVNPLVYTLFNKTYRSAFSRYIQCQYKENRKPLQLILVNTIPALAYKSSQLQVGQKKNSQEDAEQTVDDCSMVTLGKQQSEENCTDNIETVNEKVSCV

Consider `C=CCn1cc2c3c(cccc31)[C@H]1C[C@@H](C(=O)N[C@]3(C)O[C@@]4(O)C5CCCN5C(=O)[C@H](Cc5ccccc5)N4C3=O)CN(C)[C@@H]1C2` (stereo partly shown) [1-Allyl dihydroergotamine], for which the “5-HT2B pA2 value” in assay [1] is 9.30.

`C=CCn1cc2c3c(cccc31)C1=C[C@@H](C(=O)N[C@]3(C)O[C@@]4(O)C5CCCN5C(=O)[C@H](Cc5ccccc5)N4C3=O)CN(C)[C@@H]1C2` (stereo partly shown) [1-Allyl ergotamine]: the “5-HT2B -logKp, calculated according to Kenakin” value in assay [1] (printed in the pA2 column, marked **) is on record as 9.11**.

On to `C=CCn1cc2c3c(cccc31)[C@H]1C[C@@H](C)CN(C)[C@@H]1C2` [1-Allyl festuclavine], for which, in assay [2], the “5-HT2A pA2 value” worked out at 7.89. For the same molecule, the “5-HT2B pA2 value” in assay [1] amounted to 6.74.

For `C=CCn1cc2c3c(cccc31)C1=CC(NC(=O)N(CC)CC)CN(C)C1C2` (stereo not shown) [1-Allyl lisuride], the “5-HT2B pA2 value” in assay [1] is reported as 8.17.

For `C=CCn1cc2c3c(cccc31)[C@@H]1C[C@H](NC(=O)N(CC)CC)CN(C)[C@H]1C2` [1-Allyl terguride, 1-allyl-(5R,8S,10R)-terguride], the Kb in assay [2] is 2 nM. For the same molecule, the “5-HT2B pA2 value” in assay [1] was found to be 7.67.

In assay [2], `C=CCn1cc2c3c(cccc31)C1=C[C@@H](CO)CN(C)[C@@H]1C2` [1-Allyl-lysergol, 1-Allyl lysergol] gave a Kb of 3.55 nM. Moreover, in assay [1], the “5-HT2B pA2 value” worked out at 7.61.

`CCN(CC)C(=O)N[C@H]1C=C2c3cccc4[nH]cc(c34)C[C@H]2N(C)C1` [Lisuride, reference compound]: in assay [1], the “5-HT2B pA2 value” is reported as 10.32.

As to `CN1C[C@H](CO)C=C2c3cccc4[nH]cc(c34)C[C@H]21` [Lysergol], in assay [3], the “5-HT2A pA2 value” is recorded as 6.88.

With `CCN(CC)C(=O)N[C@H]1C[C@@H]2c3cccc4[nH]cc(c34)C[C@H]2N(C)C1` [Terguride, reference compound], in assay [2], the “5-HT2A pA2 value” turned out to be 8.38. Also, the “5-HT2B pA2 value” in assay [1] was found to be 8.49.
